{"source": "patent US4379160A", "about": "“Carbazole compounds and medicinal use thereof” (priority 1978, dated 1983)", "key": {"Mouse [1]": {"tested_on": "Mouse", "details": "in vivo; for Loss of Righting Reflex ED min.: ip"}, "anti-histamine activity": {"tested_on": "anti-histamine activity", "assay": "anti-histamine activity", "details": "in words"}, "[2]": {"tested_on": "apomorphine-induced aggression", "assay": "antagonism of apomorphine-induced aggression (antiaggressive activity)", "details": "for ED50: Rattus norvegicus"}, "muricidal behaviour": {"tested_on": "muricidal behaviour", "assay": "inhibition of instinctive muricidal (mouse killing) behaviour", "type": "in vivo, rat", "details": "rats"}, "Mouse [3]": {"tested_on": "Mouse", "assay": "anticonvulsant activity, Maximal Electroshock Test (MES)", "type": "in vivo", "details": "for ED50: ip, Mouse, Maximal Electroshock Test", "description": "| ^(a) Maximal Electroshock Test (Woodbury and Davenport, Arch. Int. | Pharmacodyn. Ther., 92, 97-107 (1952)."}, "[4]": {"tested_on": "locomotor activity of d-amphetamine", "assay": "potentiation of locomotor activity of d-amphetamine", "type": "in vivo", "details": "in words"}, "[5]": {"assay": "side-effects such as sedation, catalepsy and extrapyramidal dysfunction", "type": "in vivo", "details": "in words"}, "[6]": {"tested_on": "apomorphine induced stereotyped behaviour", "assay": "apomorphine induced stereotyped behaviour", "type": "in vivo", "details": "rat; in words"}, "[7]": {"tested_on": "anti-cholinergic activity", "assay": "anti-cholinergic activity", "details": "in words"}, "[8]": {"assay": "antagonism of apomorphine-induced aggression (antiaggressive activity)", "details": "rat, in vivo, po"}, "Rat": {"tested_on": "Rat", "details": "in vivo; for Muscle Tone Decrease ED min.: ip"}, "[9]": {"assay": "acute lethality (LD50) in male mice", "details": "mouse, in vivo"}, "[10]": {"assay": "acute oral lethality (LD50) in rat", "details": "in vivo, p.o."}, "[11]": {"details": "po, read-out: Antiaggressive ED50"}}, "note": "Counter-ions that a name gives are not always drawn. Like-named read-outs stand apart in the source and are kept apart here.", "data": [{"smiles": "C[C@@H]1CN(CCCn2c3ccccc3c3ccccc32)C[C@H](C)N1", "note": "[Carbazole, 9-[3-(3,5-cis-dimethylpiperazino)propyl]carbazole]", "values": [{"measurement": "minimum dose for loss of righting reflex relative to compound B", "setting": "Mouse [1]", "result": "about three times that of compound B"}, {"measurement": "anti-histamine activity relative to phenothiazines", "setting": "anti-histamine activity", "result": "significantly less"}, {"measurement": "potency of anti-aggressive and anti-psychotic properties relative to non-methylated, 4-methyl, 3,4,5-trimethyl and 3,5-trans-dimethyl compounds", "setting": "[2]; comparison in words", "result": "more potent than either the corresponding non-methylated compound or any of the analogous 4-methyl, 3,4,5-trimethyl or 3,5-trans-dimethyl compounds"}, {"measurement": "antagonism of apomorphine-induced aggression", "setting": "[2]; rat, in words", "result": "antagonised apomorphine-induced aggression"}, {"measurement": "suppression of instinctive muricidal (mouse killing) behaviour", "setting": "muricidal behaviour; in words", "result": "suppress the instinctive muricidal (i.e. mouse killing) behaviour"}, {"measurement": "anticonvulsant activity of the \"Carbazole\" relative to cpd. B", "setting": "Mouse [3]; in words", "result": "less than half the anticonvulsant activity of cpd. B"}, {"measurement": "potentiation of the locomotor activity of d-amphetamine", "setting": "[4]", "result": "potentiates the locomotor activity of d-amphetamine"}, {"measurement": "undesirable side-effects such as sedation, catalepsy and extrapyramidal dysfunction", "setting": "[5]", "result": "substantially free from undesirable side-effects"}, {"measurement": "antagonism of apomorphine induced stereotyped behaviour", "setting": "[6]", "result": "failure to antagonise apomorphine induced stereotyped behaviour"}, {"measurement": "anti-cholinergic activity relative to phenothiazines", "setting": "[7]", "result": "significantly less"}]}, {"smiles": "C[C@@H]1CN(CCCn2c3ccccc3c3ccccc32)C[C@H](C)N1", "note": "[Example 1, 9-[3-(3,5-cis-Dimethylpiperazino)propyl]carbazole dihydrochloride hemihydrate]", "values": [{"measurement": "Loss of Righting Reflex ED min.", "setting": "Mouse [1]", "result": 160, "unit": "mg/kg"}, {"measurement": "selectivity ratio", "setting": "[8]", "result": 20}, {"measurement": "ED50", "setting": "[2]; ip, read-out: ED50 (anti-aggressive)", "result": 12.5, "unit": "mg/kg"}, {"measurement": "ED50", "setting": "[2]; [11]", "result": 48, "unit": "mg/kg"}, {"measurement": "ED50", "setting": "muricidal behaviour; Rattus norvegicus, ip, intraperitoneal, read-out: ED50 (anti-muricidal)", "result": 15, "unit": "mg/kg"}, {"measurement": "ED50", "setting": "Mouse [3]", "result": 43, "unit": "mg/kg"}, {"measurement": "Muscle Tone Decrease ED min.", "setting": "Rat", "result": 125, "unit": "mg/kg"}, {"measurement": "LD50", "setting": "[9]; intravenous, read-out: LD50 intravenous", "result": 31, "unit": "mg/kg"}, {"measurement": "LD50", "setting": "[9]; oral, read-out: LD50 oral", "result": 977, "unit": "mg/kg"}, {"measurement": "LD50", "setting": "[10]", "result": 957, "unit": "mg/kg"}]}, {"smiles": "O=C1NC(=O)C(c2ccccc2)(c2ccccc2)N1", "note": "[Phenytoin]", "values": [{"measurement": "Loss of Righting Reflex ED min.", "setting": "Mouse [1]", "result": "> 100", "unit": "mg/kg"}, {"measurement": "ED50", "setting": "Mouse [3]", "result": 8.5, "unit": "mg/kg"}, {"measurement": "anticonvulsant activity relative to the \"Carbazole\" (cpd. A)", "setting": "Mouse [3]; phenytoin vs cpd. A", "result": 5, "unit": "times"}, {"measurement": "anticonvulsant activity relative to cpd. B", "setting": "Mouse [3]; phenytoin vs cpd. B", "result": "~2.5", "unit": "times"}]}, {"smiles": "CN1CCN(CCCn2c3ccccc3c3ccccc32)CC1", "note": "[compound B, 9-[3-(4-methylpiperazino)propyl]carbazole, reference compound]", "values": [{"measurement": "Loss of Righting Reflex ED min.", "setting": "Mouse [1]", "result": 50, "unit": "mg/kg"}, {"measurement": "selectivity ratio", "setting": "[8]", "result": 11}, {"measurement": "ED50", "setting": "[2]; [11]", "result": 75, "unit": "mg/kg"}, {"measurement": "level of anticonvulsant activity", "setting": "Mouse [3]; assessment in words", "result": "marginal"}, {"measurement": "ED50", "setting": "Mouse [3]", "result": 20, "unit": "mg/kg"}, {"measurement": "dose at which muscle tone decrease is observed relative to the \"Carbazole\"", "setting": "Rat", "result": "much lower dose"}, {"measurement": "Muscle Tone Decrease ED min.", "setting": "Rat", "result": 50, "unit": "mg/kg"}, {"measurement": "LD50", "setting": "[10]", "result": 830, "unit": "mg/kg"}]}]}
